Consider 2 molecules from patent publication US20240368557A1, “STEM CELL-DERIVED ALPHA CELLS AND METHODS OF GENERATING SAME” (President and Fellows of Harvard College, priority 2018, published 2024).

What all share (assay type): cell-based, human
Test [1] deals with HUES8-derived polyhormonal cells. In words: small-molecule phenotypic screen on polyhormonal cells (high-content imaging of pro/insulin and pro/glucagon). The settings on record: 96 hours incubation, quintuplicate. The protocol:
(§1) Toward this goal, we initiated a small-molecule phenotypic screen to identify compounds that either promote alpha cell identity or conversely reduce proinsulin expression in vitro. Briefly, HUES8 cells were differentiated using our polyhormonal optimized protocol. Cells were dispersed and arrayed into a 384-well plate and compounds were introduced. HUES8-derived polyhormonal cells were co-incubated with a compound library for 96 hours, after which the cells were fixed and stained for pro/glucagon and pro/insulin. High-content imaging was used to quantify the percentage of cells expressing each hormone individually and the percentage of polyhormonal cells as marked by the co-expression of both hormones (FIGS. 3A-3B). In total 43 compounds were evaluated in quintuplicate. […] To confirm that the effects of this compound were not unique to the assay format, PdbU was evaluated in the final stage of the directed differentiation protocol.
Polyhormonal cells were dispersed using TrypLE Express for 15 minutes and quenched using S3 media. The resulting single cell suspension was arrayed into a 384 well plate which had been coated with Matrigel with 50,000 cells in each well. Compounds were introduced each to 5 separate wells and incubated for 96 hours after which cells were fixed with 4% PFA and stained for pro/insulin and pro/glucagon as described above with the following modifications. Antibody incubations and washes were performed using a BioTek EL405 Plate washer and dispenser. Cells were imaged with the cellomics array scan high content imaging system. Nine fields of view were captured for each well and analyzed for cell number and fluorescent content. The percentage of cells expressing pro/insulin and pro/glucagon was calculated for each well.

Test [2] deals with HUES8 cells differentiated to SC-beta cells. The test is described as follows: PdbU treatment of stage 6 SC-beta cell differentiation, flow cytometry. An excerpt: FIG. 7 provides flow cytometry of HUES8 cells differentiated to SC-beta cells and treated with PdbU for 14 days during stage 6.
Differentiation of hPSCs to beta cells results in a side population of polyhormonal cells. To this end we evaluated the effect of PKC activation on the differentiation of SC-beta cells. […] However, when treated with PdbU, the polyhormonal side population in the differentiation was reduced, and the percentage of monohormonal alpha cells was increased.
Cells were collected for flow cytometry analysis at various time points throughout the differentiation process. Cells were dispersed with TrypLE Express at 37° C. for 15 minutes after which trypsin was quenched with serum containing media (S1, S2, or S3). Cells were fixed in 4% PFA for 20 minutes and subsequently stored in PBS at 4° C. until staining. Staining was performed by first permeabilizing the cells in block solution (PBS+0.1% Triton X-100+5% donkey serum) for 40 minutes. Cells were then incubated with primary antibodies in block solution for 1 hour at RT, washed twice with PBST and incubated with secondary antibody in block solution for 1 hour at RT. Cells were then washed in three times and resuspended in PBST at a concentration of 1×10^6 cells/ml. Stained cells were analyzed using the Accuri C6 or Attune flow cytometers. Antibody concentrations used were as follows. Pro/insulin was assessed using an antibody that recognizes the c-peptide epitope from the Iowa Hybridoma Bank and used at a concentration of 1:300. Pro/glucagon was assessed using an antibody that recognizes the GLP-2 (Santa Cruz) or glucagon (Manufacturer) epitopes and used at a concentration of 1:300. Secondary antibodies used were a donkey-anti-goat-Alexaflour 488 (1:500) and a donkey-anti-rat-Alexaflour 647 (1:500).
For orientation: A flow cytometer gives signals particle by particle.

The test system of another test is polyhormonal cells. In words: PKC activator treatment in final stage (stage 6) of directed differentiation, flow cytometry. The protocol: as §1
To test the specificity of PKC activation on the results shown above, we compiled a small library of known PKC activators and evaluated their ability to similarly decrease insulin expression in polyhormonal cells. […] To that end, we treated polyhormonal cells for 28 days with either vehicle or each PKC activator and assessed the percentage of monohormonal expressing alpha cells at the end of the 28-day treatment. […]

The next test concerns SC-alpha cells. In words: glucagon secretion of SC-alpha cells with glucagon secretion modulators. The text has this:
To evaluate the ability of SC-alpha cells to respond to physiological conditions, we screened a number of glucagon secretion modulators and evaluated the effect on glucagon secretion. In the human islet, alpha cells secrete glucagon in response to low glucose conditions. […] Additionally, alpha cells respond to paracrine inhibitory signaling from delta cells through the hormone somatostatin resulting in suppressed glucagon secretion.
A number of pharmacological compounds have been developed to modulate glucagon secretion. We evaluated the effect of these compounds on SC-alpha cells to determine how well SC-alpha cells recapitulate the functional response of alpha cells (FIG. 4C).
Human islets or differentiated polyhormonal or SC-alpha cells were washed twice in low-glucose (2.8 mM) Krebs Ringer (KRB) buffer (128 mM NaCl, 5 mM KCl, 2.7 mM CaCl2, 1.2 mM MgSO4, 1 mM Na2HPO4, 1.2 mM KH2PO4, 5 mM NaHCO3, 10 mM HEPES, 0.1% BSA in milliQ). Cells were then loaded into 24 well transwell inserts and fasted in low glucose KRB for 1 hour at 37° C. Clusters were washed once in low glucose KRB and then incubated in low glucose KRB for 1 hour at 37° C. […] Cells were then dispersed and counted using a vicell automated cell counter. Collected supernatants were analyzed by ELISA for Insulin and/or glucagon and normalized to cell number.

The mark [3] stands for this setting: stage 6 SC-beta cells treated with PdbU.

`CCCC(=O)O[C@@H]1[C@@H](C)[C@@]2(O)[C@@H](C=C(CO)C[C@]3(O)C(=O)C(C)=C[C@@H]23)[C@@H]2C(C)(C)[C@]12OC(=O)CCC` [PdbU]: in test [1], the “percentage of cells expressing pro/glucagon” value was “increase”; the “percentage of polyhormonal cells (cells expressing both pro/insulin and pro/glucagon)” value is listed as “significantly reduced”; the “percentage of pro/insulin expressing cells” value is recorded as “significantly decrease”. In test [2] (PdbU for 14 days during stage 6), the “percentage of Nkx6.1/C-peptide co-positive cells (number of beta cells)” value is on record as “did not have a significant effect”. For the same molecule, in test [2] (setting [3]), the “percentage of monohormonal alpha cells in the SC-beta differentiation” value was “increased” and the “polyhormonal side population in the SC-beta differentiation” value is “reduced”. For the same molecule, the “population of polyhormonal cells induced to reduce insulin expression” value in the test on polyhormonal cells (28 day treatment, stage 6, vs. 23±3% (comparison)) was 46±4%. Further, in the test with polyhormonal cells (cultured in the absence of PdbU for 7 days), the “percentage of monohormonal SC-alpha cells after withdrawal of PdbU” value was “did not significantly reduce”.
For `COc1ccccc1OCC(O)CN1CCN(CC(=O)Nc2c(C)cccc2C)CC1` (stereo not drawn) [ranolazine], the “glucagon secretion from SC-alpha cells” value in the test with SC-alpha cells is given as “increase glucagon secretion”.
